From patent US9447385B2, “Butanol dehydrogenase enzyme from the bacterium Achromobacter xylosoxidans” (BUTAMAX ADVANCED BIOFUELS LLC, priority 2008, dated 2016)
Read-outs that look alike come from different tables or passages of the source.

Columns and labels:
[1] = test system: A. xylosoxidans butanol dehydrogenase; details: alcohol substrate (oxidation); 35° C., TRIS buffer pH 8.5, 3 mM NAD+; crude enzyme from A. xylosoxidans
Description: Reactions with alcohol substrates were performed at 35° C. in TRIS buffer, pH 8.5, containing 3 mM NAD^+ and varying concentrations of alcohol. Reactions with ketone or aldehyde substrates were performed at 35° C. with 50 mM MES buffer, pH 6.0, 200 μM NADH and varying concentrations of the ketone or aldehyde. Crude enzyme preparations were used, obtained either from A. xylosoxidans or recombinant E. coli strain Mach1/pTrc99a::sadB (described in Example 3 below).

[2] = test system: butanol dehydrogenase from A. xylosoxidans; experiment: Activity stain on non-denaturing polyacrylamide gel (MTT/PMS coupled); assay type: biochemical, Achromobacter xylosoxidans; details: NAD+, MTT, PMS
Text: The purified enzyme and molecular weight standards were subjected to electrophoresis using non-denaturing polyacrylamide gels (8-16% Tris-Glycine gradient gel, Invitrogen). After electrophoresis, the gels were removed and stained for protein (Simply Blue Protein Stain, Invitrogen) or stained for activity by coupling the conversion of 1-butanol plus NAD^+ to butyraldehyde plus NADH with the conversion of 3 [4,5-dimethylthiazol-2-yl]-2,5-diphenyltetrazolium bromide (MTT) to a deeply colored formazan, using phenazine methosulfate (PMS) as mediator (Tang et al., J. Bacteriol. 140, 182 (1997)). The activity solution contained 0.5 mg PMS, 5 mg MTT, 20 mg NAD^+ and 1 mL of 1-butanol in a total volume of 25 mL.

[3] = test system: A. xylosoxidans butanol dehydrogenase; experiment: Kinetic characterization of butanol dehydrogenase, reduction of ketone or aldehyde substrates; assay type: biochemical, Achromobacter xylosoxidans; details: 35° C., 50 mM MES pH 6.0, 200 μM NADH
Text: The secondary alcohol dehydrogenase (sadB) from Achromobacter xylosoxidans was cloned into the vector pTrc99a (Amann et al., Gene 69(2):301-315 (1988)). The coding region (SEQ ID NO: 1) was amplified using standard conditions from A. xylosoxidans genomic DNA, prepared using a Gentra Puregene kit (Gentra Systems, Inc., Minneapolis, Minn.; catalog number D-5500A) following the recommended protocol for gram negative organisms using forward and reverse primers N473 and N469 (SEQ ID NOs: 24 and 23). The PCR product was TOPO-Blunt cloned into pCR4 BLUNT (Invitrogen) to produce pCR4Blunt::sadB, which was used to transform E. coli Mach-1 cells. Plasmid DNA was subsequently isolated from four clones, and the sequence verified. The plasmid was then digested with EcoRI, releasing the sadB fragment, which was ligated with EcoRI-digested pTrc99a to generate pTrc99a::sadB. The E. coli Mach 1 cells were transformed with the plasmid and the resulting transformant was named Mach1/pTrc99a::sadB.

[4] = ketone or aldehyde substrate (reduction), crude enzyme from A. xylosoxidans
[5] = aldehyde substrate (reduction), crude enzyme from E. coli strain Mach1/pTrc99a

Molecule	Km [1] [µM]	Vmax [1] [µmol/min]	activity staining of the enzyme band with the alcohol as substrate [2]	Km [3, 4] [µM]	Vmax [3, 4] [µmol/min]	other results
1-Butanol	4600	0.02	–	–	–	–
CCC(C)O (stereo not drawn) [2-Butanol]	300	0.22	active	–	–	–
CCC(C)=O [2-Butanone]	–	–	–	500	0.35	–
CCCC=O [Butyraldehyde]	–	–	–	7300	0.67	–
CC(C)C=O [Isobutyraldehyde]	–	–	–	–	–	Km [3, 5]: 1900 µM; Vmax [3, 5]: 1.1 µmol/min
CC(C)CO [isobutanol]	–	–	active	–	–	–
